Assay [1] addresses Axl (Homo sapiens (Human), UniProt P30530). Nature of the assay: TAM Enzymatic Assay (HTRF), phosphor-Axl. The format is biochemical. The protocol: Autophosphorylation of Axl was carried out by incubating the recombinant Axl protein (Life Technologies, PV4275) in buffer containing 50 mM Tris, pH7.5, 0.2 mg/ml Axl, 5 mM ATP, 20 mM MgCl2 and 2 mM DTT at room temperature for 1 hour.
(§1) The kinase assay buffer contained 50 mM HEPES, pH7.5, 10 mM MgCl2, 1 mM EGTA, 0.01% NP-40 and 2 mM DTT. 0.1 ul test compounds dissolved in DMSO were transferred from compound plates to white 384-well assay plates (Greiner […] plates). […] 4 ul enzyme solution (or assay buffer for the enzyme blank) was added to the appropriate wells in each plate, and then 4 ul/well substrate solution was added to initiate the reaction. The plate was protected from light and incubated at room temperature for 60 min. […] The plate was incubated for 1 h at room temperature, and HTRF (homogenous time resolved fluorescence) signal was measured on a PHERAstar FS plate reader (BMG labtech). Percentage of inhibition was calculated for each concentration and IC50 value was generated from curve fitting with GraphPad Prism software.
Background: Time-resolved FRET reads energy transfer from a long-lived donor to a nearby acceptor.

The target of assay [2] is Tyro3 (Homo sapiens (Human), UniProt Q06418). Nature of the assay: TAM Enzymatic Assay (HTRF), Tyro3. The format is biochemical. As to the method:
as §1

Tyro3, sequence (Q06418 41-890): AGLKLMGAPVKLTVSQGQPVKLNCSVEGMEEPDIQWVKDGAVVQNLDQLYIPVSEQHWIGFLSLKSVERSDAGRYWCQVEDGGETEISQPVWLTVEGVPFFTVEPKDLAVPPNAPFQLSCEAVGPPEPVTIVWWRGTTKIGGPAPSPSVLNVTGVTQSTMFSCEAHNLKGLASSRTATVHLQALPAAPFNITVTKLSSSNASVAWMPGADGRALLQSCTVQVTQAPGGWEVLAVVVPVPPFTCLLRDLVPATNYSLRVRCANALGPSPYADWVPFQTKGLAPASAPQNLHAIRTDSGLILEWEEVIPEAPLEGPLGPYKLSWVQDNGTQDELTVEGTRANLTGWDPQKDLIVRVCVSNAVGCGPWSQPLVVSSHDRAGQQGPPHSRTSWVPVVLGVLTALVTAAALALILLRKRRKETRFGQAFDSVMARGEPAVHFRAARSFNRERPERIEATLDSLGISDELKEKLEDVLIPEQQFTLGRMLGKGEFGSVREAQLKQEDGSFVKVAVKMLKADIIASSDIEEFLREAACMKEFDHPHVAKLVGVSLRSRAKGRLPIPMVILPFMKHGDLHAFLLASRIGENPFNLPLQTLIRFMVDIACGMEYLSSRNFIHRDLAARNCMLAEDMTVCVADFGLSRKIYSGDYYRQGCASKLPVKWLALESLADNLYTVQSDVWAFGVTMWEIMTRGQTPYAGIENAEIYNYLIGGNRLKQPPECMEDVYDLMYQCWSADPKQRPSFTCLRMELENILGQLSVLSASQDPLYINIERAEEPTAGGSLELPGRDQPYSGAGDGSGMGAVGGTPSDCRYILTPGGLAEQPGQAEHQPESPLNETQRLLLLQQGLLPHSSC
Axl, sequence (P30530 26-894): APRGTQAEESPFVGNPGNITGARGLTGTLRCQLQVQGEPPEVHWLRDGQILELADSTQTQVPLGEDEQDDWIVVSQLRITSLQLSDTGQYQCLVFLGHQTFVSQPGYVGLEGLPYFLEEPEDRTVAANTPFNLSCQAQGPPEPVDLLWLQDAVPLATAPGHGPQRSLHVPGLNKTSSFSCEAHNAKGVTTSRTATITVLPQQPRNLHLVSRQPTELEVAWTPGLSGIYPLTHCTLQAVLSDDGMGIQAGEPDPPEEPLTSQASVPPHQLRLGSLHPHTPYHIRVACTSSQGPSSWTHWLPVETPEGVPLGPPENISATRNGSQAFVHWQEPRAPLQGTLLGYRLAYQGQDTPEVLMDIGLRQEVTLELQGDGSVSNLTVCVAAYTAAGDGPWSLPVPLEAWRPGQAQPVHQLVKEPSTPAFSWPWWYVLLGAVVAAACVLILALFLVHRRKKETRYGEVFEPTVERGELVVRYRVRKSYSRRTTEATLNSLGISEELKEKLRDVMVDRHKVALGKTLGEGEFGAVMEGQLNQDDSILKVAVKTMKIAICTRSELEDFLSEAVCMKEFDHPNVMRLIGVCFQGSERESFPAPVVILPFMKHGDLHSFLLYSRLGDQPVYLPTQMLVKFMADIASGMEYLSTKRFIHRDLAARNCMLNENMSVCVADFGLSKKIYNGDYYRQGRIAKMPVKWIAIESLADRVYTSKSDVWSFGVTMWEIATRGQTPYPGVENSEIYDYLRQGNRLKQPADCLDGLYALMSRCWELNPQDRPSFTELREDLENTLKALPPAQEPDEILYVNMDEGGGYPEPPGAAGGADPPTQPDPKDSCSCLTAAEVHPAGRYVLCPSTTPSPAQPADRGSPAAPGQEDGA

As usually defined, the IC50 is the point on the concentration scale where inhibition reaches its midpoint. In the case of `Cc1cn(C)nc1-n1c(=O)c(C(=O)Nc2ccc(-c3cc(C4CCN(C(=O)C(C)C)CC4)n4ncnc(N)c34)cc2)cn(C(C)C)c1=O` [Example 138, N-(4-(4-Amino-7-(1-isobutyrylpiperidin-4-yl)pyrrolo[2,1-f][1,2,4]triazin-5-yl)phenyl)-3-(1,4-dimethyl-1H-pyrazol-3-yl)-1-isopropyl-2,4-dioxo-1,2,3,4-tetrahydropyrimidine-5-carboxamide], the values for the 50% inhibitory concentration (IC50) in assay [1] and in assay [2] were < 5 nM and > 100 nM, respectively.

The values above are taken from US10844069B2, “Pyrrolotriazine compounds as TAM inhibitors” (Incyte Corporation, priority 2016, dated 2020).
